# In patent US6150361A, “Triazineone compounds for treating diseases due to sarcosystis, neospora and toxoplasma” (Bayer Corporation, priority 1998, dated 2000):
# Where “and” joins values, the source holds several entries; their conditions need not be identical. Equal values may be shown once.
# Assays:
# Format in all cases: in vivo
# [1] = Pharmacokinetics of a single oral dose of Toltrazuril in horses (blood levels); conditions: single oral dose of Toltrazuril 10 mg/kg; for concentration at 24 h / Concentration in mg/l of Blood, 24 hours: 24 h post treatment; for concentration at 24 h: read-out: Concentration in mg/l of Blood, 24 hours; for concentration at 48 h / Concentration in mg/l of Blood, 48 hours: 48 h post treatment; for concentration at 48 h: read-out: Concentration in mg/l of Blood, 48 hours; for concentration at 72 h / Concentration in mg/l of Blood, 72 hours: 72 h post treatment; for concentration at 72 h: read-out: Concentration in mg/l of Blood, 72 hours; for Concentration in mg/l of Blood, 24 hours: 1440 min; for Concentration in mg/l of Blood, 48 hours: 2880 min; for Concentration in mg/l of Blood, 72 hours: 4320 min
# Procedure: A pharmacokinetic study was conducted in horses comparing blood levels of Toltrazuril, Ponazuril and Toltrazuril Sulfoxide at various times post a single dose of Toltrazuril. All horses received a single dose of 10 mg/kg, which was administered orally as a suspension. Blood samples were drawn at the time of treatment (0) and at 0.25, 0.5, 1, 2, 4, 6, 12, 24, 48 and 72 hours post treatment. […] This was an indication that Ponazuril, alone, would produce acceptable blood levels that are envisioned to pass the blood-brain barrier, a characteristic required to treat neurological diseases such as those caused by Sarcocystis neurona, Toxoplasma gondii, Neospora caninum and Neospora
# [2] = Drug levels in serum after repeated doses of Toltrazuril in horses; set-up: unit not given here; conditions: for AVG drug level in serum, 48 Hrs / AVG drug level in serum, 96 Hrs / AVG drug level in serum, 240 Hrs: group average; for Drug level in serum, 48 Hrs / Drug level in serum, 96 Hrs / Drug level in serum, 240 Hrs: individual horse
# Procedure: (§1) This experiment was conducted in order to determine whether triazineones such as Toltrazuril can pass the blood-brain barrier. Normal horses were divided into three groups of three horses per group. Group 1 horses received Toltrazuril administered orally as a 5% suspension at a dose level of 2.5 mg/Kg. Group 2 horses received Toltrazuril administered orally as a 5% suspension at a dose level of 5.0 mg/Kg. Group 3 horses received Toltrazuril administered orally as a 5% suspension at a dose level of 7.5 mg/Kg. The dosing was repeated daily for 10 days. Blood samples were drawn at 48, 96 and 240 hours and the concentration of Toltrazuril, Toltrazuril sulfoxide and Ponazuril in the serum was measured. Ten days after the start of the treatment (Day 10), a sample of cerebral spinal fluid was removed from each horse and the concentrations of Toltrazuril, Toltrazuril Sulfoxide and Ponazuril were again measured in these samples. The concentrations of Toltrazuril, Toltrazuril Sulfoxide and Ponazuril in the serum and cerebral spinal fluid are reported in TABLES 5a and 5b.
# [3] = Drug levels in cerebral spinal fluid after repeated doses of Toltrazuril in horses; set-up: Drug level in Cerebral Spinal Fluid, Day 10 / AVG drug level in Cerebral Spinal Fluid, Day 10: unit not given here; conditions: Day 10; for AVG drug level in Cerebral Spinal Fluid, Day 10: group average; for Drug level in Cerebral Spinal Fluid, Day 10: individual horse
# Procedure: as §1
# [4] = Passing of the blood-brain barrier in horses; conditions: after oral Toltrazuril daily for 10 days
# Procedure: as §1
# [5] = horse, blood, po, 10 mg/kg, suspension, one value per horse (A-F)
# [6] = suspension, one value per horse (A-F), 10 mg/kg
# [7] = Toltrazuril 2.5 mg/Kg oral daily for 10 days
# [8] = Toltrazuril 5.0 mg/Kg oral daily for 10 days
# [9] = Toltrazuril 7.5 mg/Kg oral daily for 10 days
structure (smiles),measurement,setting,value
"Cc1cc(-n2c(=O)[nH]c(=O)n(C)c2=O)ccc1Oc1ccc(SC(F)(F)F)cc1 [Toltrazuril, reference compound]",concentration at 24 h,[1]; [5],6.43 mg/L
same,concentration at 48 h,[1]; [5],7.61 mg/L
same,concentration at 72 h,[1]; [5],6.65 mg/L
same,"Concentration in mg/l of Blood, 0.25 hours","[1]; suspension, 0.25 h post treatment, one value per horse (A-F), 10 mg/kg, 15 min",0.061 mg/L
same,"Concentration in mg/l of Blood, 1 hour","[1]; suspension, 1 h post treatment, one value per horse (A-F), 10 mg/kg, 60 min",3.286 mg/L
same,"Concentration in mg/l of Blood, 24 hours",[1]; [6],11.690 mg/L and 7.236 mg/L and 8.694 mg/L and 10.224 mg/L
same,"Concentration in mg/l of Blood, 48 hours",[1]; [6],6.677 mg/L and 9.758 mg/L and 8.234 mg/L and 6.869 mg/L and 7.096 mg/L
same,"Concentration in mg/l of Blood, 72 hours",[1]; [6],5.058 mg/L and 7.633 mg/L
same,"AVG drug level in serum, 48 Hrs",[2]; [7],6.70
same,"AVG drug level in serum, 96 Hrs",[2]; [7],10.68
same,"AVG drug level in serum, 240 Hrs",[2]; [7],13.37
same,"Drug level in serum, 48 Hrs",[2]; [7],4.49 and 4.0 and 11.6
same,"Drug level in serum, 96 Hrs",[2]; [7],9.85 and 9.09 and 13.1
same,"Drug level in serum, 240 Hrs",[2]; [7],15.29 and 9.60 and 15.21
same,"AVG drug level in serum, 48 Hrs",[2]; [8],8.57
same,"AVG drug level in serum, 96 Hrs",[2]; [8],15.46
same,"AVG drug level in serum, 240 Hrs",[2]; [8],19.68
same,"Drug level in serum, 48 Hrs",[2]; [8],7.28 and 9.18 and 9.26
same,"Drug level in serum, 96 Hrs",[2]; [8],14.17 and 14.03 and 18.19
same,"Drug level in serum, 240 Hrs",[2]; [8],24.92 and 16.54 and 17.59
same,"AVG drug level in serum, 48 Hrs",[2]; [9],10.18
same,"AVG drug level in serum, 96 Hrs",[2]; [9],21.92
same,"AVG drug level in serum, 240 Hrs",[2]; [9],25.95
same,"Drug level in serum, 48 Hrs",[2]; [9],9.90 and 10.46
same,"Drug level in serum, 96 Hrs",[2]; [9],27.74 and 19.55 and 18.47
same,"Drug level in serum, 240 Hrs",[2]; [9],30.08 and 24.15 and 23.53
same,"AVG drug level in Cerebral Spinal Fluid, Day 10",[3]; [7],0.15
same,"Drug level in Cerebral Spinal Fluid, Day 10",[3]; [7],0.23 and 0.06 and 0.15
same,"AVG drug level in Cerebral Spinal Fluid, Day 10",[3]; [8],0.19
same,"Drug level in Cerebral Spinal Fluid, Day 10",[3]; [8],0.19 and 0.12 and 0.26
same,"AVG drug level in Cerebral Spinal Fluid, Day 10",[3]; [9],0.39
same,"Drug level in Cerebral Spinal Fluid, Day 10",[3]; [9],0.50 and 0.21 and 0.45
same,crossing of the blood-brain barrier,[4],effectively cross the blood-brain barrier
Cc1cc(-n2c(=O)[nH]c(=O)n(C)c2=O)ccc1Oc1ccc([S+]([O-])C(F)(F)F)cc1 (centres unmarked) [Toltrazuril Sulfoxide],concentration at 0.25 h,"[1]; horse, blood, po, 10 mg/kg, suspension, 0.25 h post treatment, one value per horse (A-F), read-out: Concentration in mg/l of Blood, 0.25 hours",< 0.01 mg/L
same,concentration at 24 h,[1]; [5],0.407 mg/L
same,concentration at 48 h,[1]; [5],0.732 mg/L
same,concentration at 72 h,[1]; [5],0.592 mg/L
same,levels in serum/bloodstream of horses receiving Toltrazuril (in words),[1],significant levels
same,"Concentration in mg/l of Blood, 24 hours",[1]; [6],0.566 mg/L and 0.461 mg/L and 0.481 mg/L and 0.633 mg/L
same,"Concentration in mg/l of Blood, 48 hours",[1]; [6],0.454 mg/L and 0.477 mg/L and 0.749 mg/L and 0.741 mg/L and 0.642 mg/L
same,"Concentration in mg/l of Blood, 72 hours",[1]; [6],0.346 mg/L and 0.377 mg/L
